Values after ≈ are worked out from the molar mass of the structure shown. Where a SMILES comes first, the peptide text is derived from it. The star is where a group is joined. Boc = CC(C)(C)OC(=O)*; OBn = c1ccc(CO*)cc1
Assays:
[1] = system: Cryptococcus neoformans; assay: Antifungal activity at Cryptococcus neoformans; format: functional
[2] = system: Yarrowia lipolytica; assay: Antifungal activity at Yarrowia lipolytica; format: functional
[3] = system: Benjaminiella poitrasii; assay: Antifungal activity at Benjaminiella poitrasii; format: functional
[4] = system: Candida albicans; assay: Antifungal activity at Candida albicans; format: functional
[5] = system: Fusarium oxysporum; assay: Antifungal activity at Fusarium oxysporum; format: functional
[6] = system: Candida albicans; assay: Antifungal activity at Candida albicans assessed as concentration required to lower the MIC of fluconazole from 32 to 1 ug/mL after 48 hrs; format: functional
[7] = system: Escherichia coli; assay: Antibacterial activity at Escherichia coli; format: functional
[8] = system: Staphylococcus aureus; assay: Antibacterial activity at Staphylococcus aureus; format: functional
[9] = system: MCF7; assay: Antiproliferative activity against human MCF7 cells by MTT assay; format: functional, cell-based
[10] = system: Escherichia coli; assay: Antibacterial activity at Escherichia coli assessed as concentration required to lower the MIC of erythromycin from 64 to 1 ug/mL after 24 hrs; format: functional
[11] = system: HEK293; assay: Antiproliferative activity against HEK293 cells by MTT assay; format: cell-based; conditions: Homo sapiens
[12] = system: MCF7; assay: Antiproliferative activity against human MCF7 cells at upto 80 uM by MTT assay; format: functional, cell-based
[13] = system: HEK293; assay: Antiproliferative activity against HEK293 cells at upto 80 uM by MTT assay; format: cell-based; conditions: human

Row | Structure (SMILES) | MIC [1] | MIC [2] | MIC [3] | MIC [4] | MIC [5] | MIC [6] | MIC [7] | MIC [8] | IC50 [9] | MIC [10] | IC50 [11] | Activity [12] | Activity [13]
1 | C[C@@H]1[C@H](O)[C@@H](C)/C=C/C=C/C=C/C=C/C=C/C=C/C=C/[C@H](O[C@@H]2O[C@H](C)[C@@H](O)[C@H](N)[C@@H]2O)C[C@@H]2O[C@](O)(C[C@@H](O)C[C@@H](O)[C@H](O)CC[C@@H](O)C[C@@H](O)CC(=O)O[C@H]1C)C[C@H](O)[C@H]2C(=O)O [AMPHOTERICIN B] | 16 µg/mL (≈ 17.3 µM) | 16 µg/mL (≈ 17.3 µM) | 16 µg/mL (≈ 17.3 µM) | 2 µg/mL (≈ 2.16 µM) | 16 µg/mL (≈ 17.3 µM) | – | – | – | – | – | – | – | –
2 | C[C@H](CCC(=O)O)[C@H]1CC[C@H]2[C@@H]3[C@H](O)C[C@@H]4C[C@H](O)CC[C@]4(C)[C@H]3C[C@H](O)[C@]12C [CHOLIC ACID] | > 128 µg/mL | > 128 µg/mL | 128 µg/mL (≈ 313 µM) | > 128 µg/mL | > 128 µg/mL | 64 µg/mL | > 128 µg/mL | > 128 µg/mL | 50 µM | 64 µg/mL | > 1000 µM | – | –
3 | OC(Cn1cncn1)(Cn1cncn1)c1ccc(F)cc1F [FLUCONAZOLE] | 32 µg/mL (≈ 104 µM) | 64 µg/mL (≈ 209 µM) | 32 µg/mL (≈ 104 µM) | 32 µg/mL (≈ 104 µM) | 8 µg/mL (≈ 26.1 µM) | – | – | – | – | – | – | – | –
4 | CC(=O)OCCC[C@@H](C)[C@H]1CC[C@H]2[C@@H]3[C@H](OC(C)=O)C[C@@H]4C[C@@H](NC(=O)CNC(=O)CNC(=O)CNC(=O)CNC(=O)OC(C)(C)C)CC[C@]4(C)[C@H]3C[C@H](O)[C@]12C | > 128 µg/mL | > 128 µg/mL | 32 µg/mL (≈ 39.7 µM) | 64 µg/mL (≈ 79.4 µM) | 64 µg/mL (≈ 79.4 µM) | 12 µg/mL | 64 µg/mL (≈ 79.4 µM) | > 128 µg/mL | 500 µM | 24 µg/mL | 200 µM | Non-toxic | Non-toxic
5 | CN(C)[C@@H]1C(O)=C(C(N)=O)C(=O)[C@@]2(O)C(O)=C3C(=O)c4c(O)cccc4[C@@](C)(O)[C@H]3C[C@@H]12 [TETRACYCLINE] | – | – | – | – | – | – | 8 µg/mL (≈ 18 µM) | 16 µg/mL (≈ 36 µM) | – | – | – | – | –
6 | C[C@H](CCCO)[C@H]1CC[C@H]2[C@@H]3[C@H](O)C[C@@H]4C[C@@H](NC(=O)CCNC(=O)CCNC(=O)CCNC(=O)CCN)CC[C@]4(C)[C@H]3C[C@H](O)[C@]12C | > 128 µg/mL | > 128 µg/mL | 64 µg/mL (≈ 94.4 µM) | 64 µg/mL (≈ 94.4 µM) | > 128 µg/mL | 6 µg/mL | 32 µg/mL (≈ 47.2 µM) | > 128 µg/mL | > 1000 µM | 8 µg/mL | 800 µM | Non-toxic | Non-toxic
7 | CC(C)(C)OC(=O)NCCC(=O)NCCC(=O)NCCC(=O)NCCC(=O)O | – | – | – | > 128 µg/mL | – | 64 µg/mL | 64 µg/mL (≈ 159 µM) | – | – | > 128 µg/mL | – | – | –
8 | CC(=O)OCCC[C@@H](C)[C@H]1CC[C@H]2[C@@H]3[C@H](OC(C)=O)C[C@@H]4C[C@@H](NC(=O)CNC(=O)CNC(=O)CNC(=O)CN)CC[C@]4(C)[C@H]3C[C@H](O)[C@]12C | > 128 µg/mL | > 128 µg/mL | 16 µg/mL (≈ 22.7 µM) | 64 µg/mL (≈ 90.7 µM) | 32 µg/mL (≈ 45.3 µM) | 6 µg/mL | > 128 µg/mL | 64 µg/mL (≈ 90.7 µM) | 150 µM | 8 µg/mL | 800 µM | Non-toxic | Non-toxic
9 | CC(=O)OCCC[C@@H](C)[C@H]1CC[C@H]2[C@@H]3[C@H](OC(C)=O)C[C@@H]4C[C@@H](NC(=O)CCNC(=O)CCNC(=O)CCNC(=O)CCNC(=O)OC(C)(C)C)CC[C@]4(C)[C@H]3C[C@H](O)[C@]12C | > 128 µg/mL | 96 µg/mL (≈ 111 µM) | 64 µg/mL (≈ 74.2 µM) | 32 µg/mL (≈ 37.1 µM) | > 128 µg/mL | 8 µg/mL | > 128 µg/mL | 32 µg/mL (≈ 37.1 µM) | 150 µM | 10 µg/mL | 80 µM | Non-toxic | Non-toxic
10 | CC(C)(C)OC(=O)NCC(=O)NCC(=O)NCC(=O)NCC(=O)O (Boc-GGGG-OH) | – | – | – | > 128 µg/mL | – | 64 µg/mL | 64 µg/mL (≈ 185 µM) | – | – | 128 µg/mL | – | – | –
11 | CC(C)(C)OC(=O)NCC(=O)NCC(=O)NCC(=O)NCC(=O)OCc1ccccc1 (Boc-GGGG-OBn) | – | – | – | > 128 µg/mL | – | 128 µg/mL | 128 µg/mL (≈ 293 µM) | – | – | 128 µg/mL | – | – | –
12 | COC(=O)CC[C@@H](C)[C@H]1CC[C@H]2[C@@H]3[C@H](O)C[C@@H]4C[C@@H](NC(=O)CCNC(=O)CCNC(=O)CCNC(=O)CCNC(=O)OC(C)(C)C)CC[C@]4(C)[C@H]3C[C@H](O)[C@]12C | > 128 µg/mL | 96 µg/mL (≈ 119 µM) | 16 µg/mL (≈ 19.8 µM) | 32 µg/mL (≈ 39.7 µM) | 64 µg/mL (≈ 79.4 µM) | 6 µg/mL | > 128 µg/mL | > 128 µg/mL | 100 µM | 16 µg/mL | > 1000 µM | Non-toxic | Non-toxic
13 | NCCC(=O)NCCC(=O)NCCC(=O)NCCC(=O)O | – | – | – | > 128 µg/mL | – | 128 µg/mL | 128 µg/mL (≈ 423 µM) | – | – | > 128 µg/mL | – | – | –
14 | NCC(=O)NCC(=O)NCC(=O)NCC(=O)O (H-GGGG-OH) | – | – | – | 128 µg/mL (≈ 520 µM) | – | > 128 µg/mL | > 128 µg/mL | – | – | 64 µg/mL | – | – | –
15 | COC(=O)CC[C@@H](C)[C@H]1CC[C@H]2[C@@H]3[C@H](O)C[C@@H]4C[C@@H](NC(=O)CCNC(=O)CCNC(=O)CCNC(=O)CCN)CC[C@]4(C)[C@H]3C[C@H](O)[C@]12C | > 128 µg/mL | > 128 µg/mL | 24 µg/mL (≈ 34 µM) | 128 µg/mL (≈ 181 µM) | 32 µg/mL (≈ 45.3 µM) | 3 µg/mL | 96 µg/mL (≈ 136 µM) | 64 µg/mL (≈ 90.7 µM) | 600 µM | 8 µg/mL | 700 µM | Non-toxic | Non-toxic
16 | CC(CCC(=O)O)C1CCC2C3C(O)CC4CC(NC(=O)CCNC(=O)CCNC(=O)CCNC(=O)CCNC(=O)OC(C)(C)C)CCC4(C)C3CC(O)C12C (stereo not drawn) | > 128 µg/mL | > 128 µg/mL | 48 µg/mL (≈ 60.6 µM) | 32 µg/mL (≈ 40.4 µM) | 64 µg/mL (≈ 80.8 µM) | 12 µg/mL | > 128 µg/mL | > 128 µg/mL | > 1000 µM | 16 µg/mL | > 1000 µM | Non-toxic | Non-toxic
17 | COC(=O)CC[C@@H](C)[C@H]1CC[C@H]2[C@@H]3[C@H](O)C[C@@H]4C[C@@H](NC(=O)CNC(=O)CNC(=O)CNC(=O)CN)CC[C@]4(C)[C@H]3C[C@H](O)[C@]12C | > 128 µg/mL | > 128 µg/mL | 64 µg/mL (≈ 98.5 µM) | 32 µg/mL (≈ 49.2 µM) | 128 µg/mL (≈ 197 µM) | 6 µg/mL | > 128 µg/mL | 96 µg/mL (≈ 148 µM) | 500 µM | 12 µg/mL | 80 µM | Non-toxic | Non-toxic
18 | CC[C@H]1OC(=O)[C@H](C)[C@@H](O[C@H]2C[C@@](C)(OC)[C@@H](O)[C@H](C)O2)[C@H](C)[C@@H](O[C@@H]2O[C@H](C)C[C@H](N(C)C)[C@H]2O)[C@](C)(O)C[C@@H](C)C(=O)[C@H](C)[C@@H](O)[C@]1(C)O [ERYTHROMYCIN] | – | – | – | – | – | – | 64 µg/mL (≈ 87.2 µM) | 32 µg/mL (≈ 43.6 µM) | – | – | – | – | –
19 | CC(C)(C)OC(=O)NCCC(=O)NCCC(=O)NCCC(=O)NCCC(=O)OCc1ccccc1 | – | – | – | > 128 µg/mL | – | 128 µg/mL | 128 µg/mL (≈ 260 µM) | – | – | 64 µg/mL | – | – | –
